Publication PMC12881681 (Molecular Pharmacology, 2025)
Values joined by “and” are separate entries in the source; they are usually repeats but may differ in a detail not shown here. Identical values can stand only once. Like-named read-outs stand apart in the source and are kept apart here.

Legend:
[1] = target: T1, human liver cytosolic AOX1 (Homo sapiens, UniProt Q06278); test: Partition ratio determination (titration, human liver cytosol); type: biochemical; set-up: Enzymatic reaction was initiated by adding human liver cytosol (100 μg); tissue Corning, Inc. (Gentest brand) 452115; host or cells: human liver cytosol, pool of 150 donors; conditions: for partition ratio, fold greater than erlotinib / turnover number and partition ratio, fold greater than erlotinib: Table 1 values; for Turnover Number: human liver cytosol; for Partition Ratio: turnover number minus 1
T1 sequence (Q06278 1-1338): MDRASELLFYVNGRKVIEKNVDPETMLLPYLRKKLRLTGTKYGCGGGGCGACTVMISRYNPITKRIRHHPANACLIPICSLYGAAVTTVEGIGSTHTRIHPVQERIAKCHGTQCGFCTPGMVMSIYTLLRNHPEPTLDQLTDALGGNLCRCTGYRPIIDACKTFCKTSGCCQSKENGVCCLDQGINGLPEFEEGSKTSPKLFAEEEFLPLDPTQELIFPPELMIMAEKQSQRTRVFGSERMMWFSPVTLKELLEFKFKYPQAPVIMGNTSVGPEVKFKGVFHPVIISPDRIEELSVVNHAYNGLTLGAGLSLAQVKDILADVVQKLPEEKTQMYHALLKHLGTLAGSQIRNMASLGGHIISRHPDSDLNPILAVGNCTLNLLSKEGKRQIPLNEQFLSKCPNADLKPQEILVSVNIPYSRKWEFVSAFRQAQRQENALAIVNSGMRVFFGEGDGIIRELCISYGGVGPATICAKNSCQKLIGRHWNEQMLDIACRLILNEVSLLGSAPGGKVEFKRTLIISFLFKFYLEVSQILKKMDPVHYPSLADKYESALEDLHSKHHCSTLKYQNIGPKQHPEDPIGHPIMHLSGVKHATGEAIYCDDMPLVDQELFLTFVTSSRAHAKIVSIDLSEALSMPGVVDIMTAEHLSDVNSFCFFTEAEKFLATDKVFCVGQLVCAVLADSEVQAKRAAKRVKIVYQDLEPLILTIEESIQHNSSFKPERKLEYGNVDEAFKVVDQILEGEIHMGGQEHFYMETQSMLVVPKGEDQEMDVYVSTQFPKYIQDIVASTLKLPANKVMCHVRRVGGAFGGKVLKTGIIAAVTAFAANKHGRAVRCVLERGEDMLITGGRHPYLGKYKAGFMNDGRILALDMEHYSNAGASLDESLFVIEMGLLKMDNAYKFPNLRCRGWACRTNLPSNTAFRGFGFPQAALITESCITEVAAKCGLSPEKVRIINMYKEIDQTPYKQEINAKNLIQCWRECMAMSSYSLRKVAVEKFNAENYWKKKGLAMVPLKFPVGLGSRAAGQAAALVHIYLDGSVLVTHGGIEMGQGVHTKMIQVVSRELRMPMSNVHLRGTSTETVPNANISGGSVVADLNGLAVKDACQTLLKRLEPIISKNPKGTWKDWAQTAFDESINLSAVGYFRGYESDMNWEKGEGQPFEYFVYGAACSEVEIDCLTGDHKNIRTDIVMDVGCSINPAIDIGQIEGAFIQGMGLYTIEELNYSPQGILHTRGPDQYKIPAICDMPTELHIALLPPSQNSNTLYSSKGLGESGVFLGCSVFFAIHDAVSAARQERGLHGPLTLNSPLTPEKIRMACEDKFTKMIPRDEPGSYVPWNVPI
Experimental: The enzyme kinetic experiments were conducted as described above. The incubation was allowed to proceed until saturation of enzyme has been reached (6 or 18 minutes, as specified in each figure legend). Carbazeran 4-oxidation was plotted against the ratio of inactivator concentration to AOX1 protein concentration in the incubation mixture of 200 μL. The specific lot of human liver cytosol (#38292) used in this study contained 1.05 ± 0.01 pmol/μL (mean ± SD) of AOX1 protein, as assessed by capillary nanoproteomic immunoassay.[27] The turnover number was the extrapolation of the intercept of the 2 linear regression lines to the x-axis, which was determined by solving the 2 linear regression equations. The partition ratio was calculated by subtracting the turnover number by 1, assuming 1:1 stoichiometry between the inactivator and the enzyme.[29]

[2] = target: T1, human liver cytosolic AOX1; test: Enzyme inactivation of human liver cytosolic AOX1-mediated carbazeran 4-oxidation; conditions: for kinact: human liver cytosol 100 μg, carbazeran 15 μM, 37 °C; for Experimental Log KI: log of KI
Experimental: Carbazeran 4-oxidation and O^6-benzylguanine 8-oxidation were deployed as AOX1-selective catalytic markers.[27] The assay conditions (amount of cytosolic protein, incubation time, and substrate concentration) for carbazeran 4-oxidation catalyzed by human recombinant AOX1 and human/rat/mouse liver cytosols were optimized previously.[7]^,[25]
Enzymatic reaction was initiated by adding human liver cytosol (100 μg). After the specified preincubation duration, an aliquot (10 μL) of the preincubation mixture was transferred to 190 μL of a prewarmed (for 3 minutes at 37 °C) secondary incubation mixture (total volume of 200 μL) containing potassium phosphate buffer and carbazeran (15 μM) or O^6-benzylguanine (150 μM), which yielded a 20-fold dilution of the primary incubation mixture. The secondary incubation mixture was incubated for 5 minutes at 37 °C before the enzymatic reaction was terminated with 200 μL of ice-cold acetonitrile containing carbazeran-d4 (2.5 nM final concentration; internal standard for 4-oxo-carbazeran) or tolbutamide (25 nM final concentration; internal standard for 8-oxo-O^6-benzylguanine). Each sample was immediately mixed by vortex, placed on ice, centrifuged at 16,000g for 15 minutes at 4 °C and stored at –30 °C until ultra-high performance liquid chromatography–tandem mass spectrometry (UPLC-MS/MS) analysis. For enzyme inactivation assays involving rat and mouse liver cytosol and recombinant AOX1 assays, the experimental conditions were similar to those of human liver cytosol, except that the amount of cytosolic protein was 200 μg (rat) and 150 μg (mouse), respectively, and the incubation time of the secondary incubation mixture was 60 minutes. For the recombinant AOX1 enzyme assay, the amount of enzyme was 100 μg, the incubation time of the secondary incubation mixture was 15 minutes, and the total volume of the primary and secondary incubation mixtures was reduced to 100 μL.
Preliminary experiments were performed to optimize the incubation time and concentration of an inactivator to ensure a log-linear decrease in enzyme activity over time and that the kobs versus inactivator concentration plot reaches a plateau for the determination of the kinact value. The observed first-order rate constant for inactivation (kobs), maximal inactivation rate constant (kinact), half-maximal inactivation concentration (KI), and the time required for half of the enzyme molecules to be inactivated (t1/2) were calculated as described in our previous publication.[28]

[3] = target: T1, human liver cytosolic AOX1; test: AOX1 inactivation, O^6-benzylguanine 8-oxidation by human liver cytosol; type: biochemical; set-up: Enzymatic reaction was initiated by adding human liver cytosol (100 μg); tissue Corning, Inc. (Gentest brand) 452115; host or cells: human liver cytosol, pool of 150 donors; conditions: gefitinib 3, 10, 30 μM
[4] = half-maximal inactivation concentration, human liver cytosol, carbazeran 4-oxidation
[5] = human liver cytosol, carbazeran 4-oxidation
[6] = read-out: KI,u, unbound, KI,u = fu × KI, fu at 10 μM in human liver cytosol
[7] = human liver cytosol, 10 μM (raloxifene 0.02 μM), 30-minute preincubation
[8] = human liver cytosol, inactivator 1.5 μM alone, 6-minute preincubation

Row | SMILES | partition ratio, fold greater than erlotinib [1] [fold] | Turnover Number [1] | Partition Ratio [1] | KI, fold higher compared with erlotinib ([2]; Table 1 values) [fold] | kinact, decrease compared with erlotinib ([2]; Table 1 values) [%] | kinact/KI ratio, decrease compared with erlotinib ([2]; Table 1 values) [%] | t1/2, fold longer compared with erlotinib ([2]; Table 1 values) | Ki [2, 4] [µM] | kinact [2] | Inactivation t1/2 [2, 5] | kinact/KI [2, 5] | Ki [2, 6] [µM] | effect of gefitinib on extent of AOX1 inactivation [3] | decrease in carbazeran 4-oxidation [2, 7] [%] | decrease in carbazeran 4-oxidation [2, 8] | Experimental Log KI ([2]; human liver cytosol) | turnover number and partition ratio, fold greater than erlotinib [1] [fold] | also measured
1 | C#Cc1cccc(Nc2nc(C)nc3cc(OCCOC)c(OCCOC)cc23)c1 [2-Methylerlotinib, 2-methylerlotinib] | 1.9 | 49.9 ± 1.40 | 48.9 ± 1.40 | 1.5 | 26 | 51 | 1.3 fold | 4 ± 0.27 | 0.84 ± 0.10∗∗ min^–1 | 0.83 ± 0.11 min | 0.21 ± 0.01∗∗∗ min^–1μM^–1 | 2.04 ± 0.14 | – | – | – | – | – | –
2 | C#Cc1cccc(Nc2ncnc3cc(OCCOC)c(OCCOC)cc23)c1 [Erlotinib] | – | 26.9 ± 1.30 | – | – | – | – | – | – | – | 0.62 ± 0.09 min | – | – | attenuated | – | – | – | – | –
3 | C#Cc1cccc(Nc2ncnc3cc(OCCO)c(OCCO)cc23)c1 [O-Didesmethylerlotinib, O-didesmethylerlotinib] | – | 24.6 ± 1.29 | 23.6 ± 1.29 | – | – | – | – | 1.98 ± 0.2 | 1.00 ± 0.04 min^–1 | 0.70 ± 0.03 min | 0.50 ± 0.03∗∗ min^–1μM^–1 | 1.67 ± 0.17 | attenuated | 99 | 90% and 89% and 92% | 0.30 ± 0.04 μM | – | –
4 | C=Cc1cccc(Nc2ncnc3cc(OCCOC)c(OCCOC)cc23)c1 [3-Vinylerlotinib, 3-vinylerlotinib] | 10 | 271 ± 23.5∗∗∗ | 270 ± 23.5∗∗∗ | ~11 | – | – | approximately 3.5 fold | 30.6 ± 9.6 | 0.33 ± 0.07∗∗∗ min^–1 | 2.14 ± 0.47∗ min | – | 23.9 ± 7.53 | – | 84 | – | 1.5 ± 0.15∗∗∗ μM | 10 | Turnover Number ([1]; listed as 3-vinylerlotinib): 271; Partition Ratio ([1]; listed as 3-vinylerlotinib): 270; kinact, fold lower compared with erlotinib ([2]; Table 1 values): approximately 3.5 fold; kinact/KI ratio, fold lower compared with erlotinib ([2]; Table 1 values): ~43 fold; decrease in carbazeran 4-oxidation ([2]; human liver cytosol, 6 minutes of preincubation (data not shown)): did not decrease
5 | C#Cc1cccc(Nc2ncnc3cc(OCCOC)c(OCCO)cc23)c1 [O-Desmethylerlotinib, O-desmethylerlotinib] | – | 35.2 ± 4.78 | 34.2 ± 4.78 | – | – | – | – | – | 1.05 ± 0.06 min^–1 | 0.66 ± 0.04 min | 0.21 ± 0.04∗∗∗ min^–1μM^–1 | 4.41 ± 1.04 | attenuated | 99 | 69% and 79% and 80% | 0.71 ± 0.11∗ μM | – | KI (inactivation) ([2]; read-out: KI, half-maximal inactivation concentration, human liver cytosol, carbazeran 4-oxidation): 5.23 ± 1.24 µM
6 | C#Cc1cc(Nc2ncnc3cc(OCCOC)c(OCCOC)cc23)ccc1C [4′-Methylerlotinib, 4′-methylerlotinib] | – | 42.9 ± 4.32 | 41.9 ± 4.32 | – | 88 | 70 | 8.5 fold | 1.03 ± 0.27 | 0.14 ± 0.03∗∗∗ min^–1 | 5.29 ± 1.19∗∗∗ min | 0.13 ± 0.02∗∗∗ min^–1μM^–1 | 0.75 ± 0.2 | – | – | – | – | 1.6 | KI, decrease compared with erlotinib ([2]; Table 1 values): 62%
